Test results: ChEMBL document CHEMBL1201862, “PubChem BioAssay data set” (2004)
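Interpolation was linear, between the two tested concentrations surrounding the appropriate level; five concentrations were tested over 48 hours in 96-well plates. GI50: concentration for 50% inhibition of growth.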 Active and inactive are the calls of the source. Cut-off read from the data, not from the text of the source: active = GI50 up to about 1.1 µM and inactive = higher.

Tests used:
Experiment in all cases: NCI anticancer screen, dose series, 48 h
RXF 393 = test system: RXF 393
BT-549 = test system: BT-549
SR = test system: SR
A549 = test system: A549
HCC 2998 = test system: HCC 2998
HOP-62 = test system: HOP-62
RPMI-8226 = test system: RPMI-8226
HCT-15 = test system: HCT-15
KM12 = test system: KM12
SN12C = test system: SN12C
SNB-19 = test system: SNB-19
MDA-N = test system: MDA-N
HT-29 = test system: HT-29
SNB-75 = test system: SNB-75
NCI-H460 = test system: NCI-H460
ACHN = test system: ACHN
MDA-MB-231 = test system: MDA-MB-231
SK-MEL-2 = test system: SK-MEL-2

Structure (SMILES)	GI50 (RXF 393)	GI50 (BT-549)	GI50 (SR)	GI50 (A549)	GI50 (HCC 2998)	GI50 (HOP-62)	GI50 (RPMI-8226)	GI50 (HCT-15) [µM]	GI50 (KM12)	GI50 (SN12C)	GI50 (SNB-19)	GI50 (MDA-N)	GI50 (HT-29)	GI50 (SNB-75)	GI50 (NCI-H460)	GI50 (ACHN)	GI50 (MDA-MB-231)	GI50 (SK-MEL-2)
COC(=O)/C=C\C(C#N)(C#N)/N=C/c1ccc(OC)cc1	2.19 µM (inactive)	5.04 µM (inactive)	0.681 µM (active)	19.5 µM (inactive)	20.6 µM (inactive)	17.7 µM (inactive)	0.48 µM (active)	3.85	16.7 µM (inactive)	15.3 µM (inactive)	> 44.7 µM (inactive)	4.75 µM (inactive)	5.31 µM (inactive)	16.4 µM (inactive)	19.5 µM (inactive)	2.82 µM (inactive)	18 µM (inactive)	18.3 µM (inactive)
COc1cc(CCCOC(=O)/C=C/c2ccc(O)c(O)c2)cc(O)c1O	73.6 µM (inactive)	30.7 µM (inactive)	43.6 µM (inactive)	69.2 µM (inactive)	> 100 µM (inactive)	> 100 µM (inactive)	27.4 µM (inactive)	91.8	44.2 µM (inactive)	29.2 µM (inactive)	> 100 µM (inactive)	22.8 µM (inactive)	31.6 µM (inactive)	35.2 µM (inactive)	49.8 µM (inactive)	> 100 µM (inactive)	28.8 µM (inactive)	83.2 µM (inactive)
COc1cccc(C2c3cc4c(cc3OC(N3CCCCC3)C2C)OCO4)c1OC (stereo not drawn)	4.08 µM (inactive)	9.06 µM (inactive)	1.24 µM (inactive)	5.14 µM (inactive)	15.3 µM (inactive)	17.9 µM (inactive)	3.44 µM (inactive)	3.37	6.32 µM (inactive)	5.73 µM (inactive)	14.8 µM (inactive)	11.2 µM (inactive)	4.58 µM (inactive)	5.52 µM (inactive)	4.46 µM (inactive)	3.19 µM (inactive)	14.3 µM (inactive)	5.96 µM (inactive)
OCCN1CN(c2nc(N3CN(CCO)C3)nc(N3CN(CCO)C3)n2)C1	22.7 µM (inactive)	32.6 µM (inactive)	11.2 µM (inactive)	83.4 µM (inactive)	19.5 µM (inactive)	19.3 µM (inactive)	27.6 µM (inactive)	22.3	21.4 µM (inactive)	18 µM (inactive)	23 µM (inactive)	18.1 µM (inactive)	25.5 µM (inactive)	23.1 µM (inactive)	19.5 µM (inactive)	31.6 µM (inactive)	19.8 µM (inactive)	18.7 µM (inactive)
COc1cc(/C=C/C(=O)N[C@@H]2C(=O)N3[C@@H]2SC(C)(C)[C@@H]3C(=O)O)ccc1O	> 100 µM (inactive)	> 100 µM (inactive)	> 100 µM (inactive)	> 100 µM (inactive)	> 100 µM (inactive)	> 100 µM (inactive)	> 100 µM (inactive)	> 100	> 100 µM (inactive)	> 100 µM (inactive)	> 100 µM (inactive)	> 100 µM (inactive)	> 100 µM (inactive)	> 100 µM (inactive)	> 100 µM (inactive)	> 100 µM (inactive)	> 100 µM (inactive)	> 100 µM (inactive)
COc1cccc2cc(C(=O)O)c(=O)oc12	> 100 µM (inactive)	> 100 µM (inactive)	> 100 µM (inactive)	> 100 µM (inactive)	> 100 µM (inactive)	> 100 µM (inactive)	> 100 µM (inactive)	> 100	> 100 µM (inactive)	> 100 µM (inactive)	> 100 µM (inactive)	> 100 µM (inactive)	> 100 µM (inactive)	> 100 µM (inactive)	> 100 µM (inactive)	> 100 µM (inactive)	> 100 µM (inactive)	> 100 µM (inactive)
